Experimental data reported in patent publication US7528162B2, “4,5-dihydro-1H-pyrazole derivatives having CB1-antagonistic activity” (Solvay Pharmaceuticals, B.V., priority 2001, dated 2009).

| melting point [°C] | SMILES |
| --- | --- |
| 151 to 152 | CONC(=NS(=O)(=O)c1cccc(C)c1)N1CC(c2ccccc2)C(c2ccc(Cl)cc2)=N1 (stereo not drawn) |
| 145 to 146 | CONC(=NS(=O)(=O)c1ccccc1C)N1CC(c2ccccc2)C(c2ccc(Cl)cc2)=N1 (stereo not drawn) |
| 160 to 162 | CONC(=NS(=O)(=O)c1cc(F)c(F)cc1F)N1CC(c2ccccc2)C(c2ccc(Cl)cc2)=N1 (stereo not drawn) |
| 201 to 203 | CONC(=NS(=O)(=O)c1ccc(Cl)cc1)N1CC(c2ccccc2)C(c2ccc(F)cc2)=N1 (stereo not drawn) |
| 174 to 177 | CONC(=NS(=O)(=O)c1ccc(Cl)cc1)N1CC(c2c(F)cccc2F)C(c2ccc(Cl)cc2)=N1 (stereo not drawn) |
| 130 | O=S(=O)(N=C(NCCF)N1CC(c2cccc(F)c2)C(c2ccc(Cl)cc2)=N1)c1ccc(Cl)cc1 (stereo not drawn) |
| > 260 | CONC(=NS(=O)(=O)c1ccc(C(F)(F)F)cc1)N1CC(c2cccc(F)c2)C(c2ccc(Cl)cc2)=N1 (stereo not drawn) |
| 147 to 149 | CONC(=NS(=O)(=O)c1ccc(C(F)(F)F)cc1)N1CC(c2ccccc2F)C(c2ccc(Cl)cc2)=N1 (stereo not drawn) |
| 213 to 214 | O=S(=O)(N=C(NN1CCCCC1)N1CC(c2ccccc2)C(c2ccc(Cl)cc2)=N1)c1ccc(Cl)cc1 (stereo not drawn) [Example 1, 3-(4-Chlorophenyl)-N′-((4-chlorophenyl)sulfonyl)-N-(piperidin-1-yl)-4-phenyl-4,5-dihydro-1H-pyrazole-1-carboxamidine] |
| 180 to 181 | CONC(=NS(=O)(=O)c1ccc(Cl)cc1)N1CC(c2ccccc2)C(c2ccc(Cl)s2)=N1 (stereo not drawn) [Example 47, 3-(5-Chlorothien-2-yl)-N′-((4-chlorophenyl)sulfonyl)-N-methoxy-4-phenyl-4,5-dihydro-1H-pyrazole-1-carboxamidine] |
| 80 to 83 | CONC(=NS(=O)(=O)c1ccc(Cl)cc1)N1CC(c2cccc(C(F)(F)F)c2)C(c2ccc(Cl)cc2)=N1 (stereo not drawn) [Example 49, 3-(4-Chlorophenyl)-N′-((4-chlorophenyl)sulfonyl)-N-methoxy-4-(3-(trifluoromethyl)phenyl)-4,5-dihydro-1H-pyrazole-1-carboxamidine] |
| 153 to 155 | O=S(=O)(N=C(NCCF)N1CC(c2c(F)cccc2F)C(c2ccc(Cl)cc2)=N1)c1ccc(Cl)cc1 (stereo not drawn) [Example 51, 3-(4-Chlorophenyl)-N′-((4-chlorophenyl)sulfonyl)-N-(2-fluoroethyl)-4-(2,6-difluorophenyl)-4,5-dihydro-1H-pyrazole-1-carboxamidine] |
| 155 | O=S(=O)(N=C(NCCF)N1CC(c2cccc(F)c2)C(c2ccc(Cl)cc2)=N1)c1ccc(C(F)(F)F)cc1 (stereo not drawn) [Example 53, 3-(4-Chlorophenyl)-N-(2-fluoroethyl)-4-(3-fluorophenyl)-N′-((4-(trifluoromethyl)phenyl)sulfonyl)-4,5-dihydro-1H-pyrazole-1-carboxamidine] |
| 162 to 164 | CONC(=NS(=O)(=O)c1ccc(Cl)cc1)N1CC(c2ccccc2F)C(c2ccc(Cl)cc2)=N1 (stereo not drawn) [Example 56, 3-(4-Chlorophenyl)-N′-((4-chlorophenyl)sulfonyl)-4-(2-fluorophenyl)-N-(methoxy)-4,5-dihydro-1H-pyrazole-1-carboxamidine] |
| 97 to 100 | CN1CCN(C(=NS(=O)(=O)c2ccc(Cl)cc2)N2CC(c3cccc(C(F)(F)F)c3)C(c3ccc(Cl)cc3)=N2)CC1 (stereo not drawn) [Example 86, N-[(3-(4-chlorophenyl)-4-(3-(trifluoromethyl)phenyl)-4,5-dihydro-1H-pyrazol-1-yl)(4-methylpiperazin-1-yl)methylene]-4-chlorobenzenesulfonamide] |
